Data from PubChem BioAssay (NCI).
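96-well plates; 48 h exposure; 5 concentrations. Endpoints by linear interpolation between flanking doses. Not reached: highest tested concentration assigned. Definition used: TGI = concentration required for complete inhibition of growth.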

What was measured:
Assay in all cases: NCI-60 cell line screen, 48 h
786-0 renal = test system: 786-0 renal
A498 renal = test system: A498 renal
A549 NSCLC = test system: A549 NSCLC
ACHN renal = test system: ACHN renal
CAKI-1 renal = test system: CAKI-1 renal
CCRF-CEM leukemia = test system: CCRF-CEM leukemia
COLO 205 colon = test system: COLO 205 colon
DLD-1 colon = test system: DLD-1 colon
DMS 114 small cell lung = test system: DMS 114 small cell lung
DMS 273 small cell lung = test system: DMS 273 small cell lung
EKVX NSCLC = test system: EKVX NSCLC
HCC-2998 colon = test system: HCC-2998 colon
HCT-116 colon = test system: HCT-116 colon
HCT-15 colon = test system: HCT-15 colon
HL-60(TB) leukemia = test system: HL-60(TB) leukemia
HOP-62 NSCLC = test system: HOP-62 NSCLC
HT29 colon = test system: HT29 colon
IGROV1 ovarian = test system: IGROV1 ovarian
K-562 leukemia = test system: K-562 leukemia
KM12 colon = test system: KM12 colon
KM20L2 colon = test system: KM20L2 colon
LOX IMVI melanoma = test system: LOX IMVI melanoma
LXFL 529 NSCLC = test system: LXFL 529 NSCLC
M14 melanoma = test system: M14 melanoma
M19-MEL melanoma = test system: M19-MEL melanoma
MALME-3M melanoma = test system: MALME-3M melanoma
MOLT-4 leukemia = test system: MOLT-4 leukemia
NCI-H226 lung = test system: NCI-H226 lung
NCI-H23 lung = test system: NCI-H23 lung
NCI-H460 lung = test system: NCI-H460 lung
NCI-H522 lung = test system: NCI-H522 lung
OVCAR-3 ovarian = test system: OVCAR-3 ovarian
OVCAR-5 ovarian = test system: OVCAR-5 ovarian
OVCAR-8 ovarian = test system: OVCAR-8 ovarian
RPMI-8226 leukemia = test system: RPMI-8226 leukemia
RXF 393 renal = test system: RXF 393 renal
SF-268 CNS = test system: SF-268 CNS
SF-295 CNS = test system: SF-295 CNS
SF-539 CNS = test system: SF-539 CNS
SK-MEL-2 melanoma = test system: SK-MEL-2 melanoma
SK-MEL-28 melanoma = test system: SK-MEL-28 melanoma
SK-MEL-5 melanoma = test system: SK-MEL-5 melanoma
SK-OV-3 ovarian = test system: SK-OV-3 ovarian
SN12C renal = test system: SN12C renal
SNB-19 CNS = test system: SNB-19 CNS
SNB-75 CNS = test system: SNB-75 CNS
SNB-78 CNS = test system: SNB-78 CNS
SW-620 colon = test system: SW-620 colon
TK-10 renal = test system: TK-10 renal
U251 CNS = test system: U251 CNS
UACC-257 melanoma = test system: UACC-257 melanoma
UACC-62 melanoma = test system: UACC-62 melanoma
UO-31 renal = test system: UO-31 renal
XF 498 CNS = test system: XF 498 CNS
HOP-18 NSCLC = test system: HOP-18 NSCLC
HOP-92 NSCLC = test system: HOP-92 NSCLC
OVCAR-4 ovarian = test system: OVCAR-4 ovarian
SR leukemia = test system: SR leukemia

With `COC(=O)[C@@H]1c2[nH]c3ccccc3c2C[C@@H]2c3ccccc3NC(=O)[C@@H]21` the TGI (786-0 renal) was over 100 µM, the TGI (A498 renal) was over 100 µM and the TGI (A549 NSCLC) was over 100 µM. It also gave a TGI (ACHN renal) of over 100 µM, a TGI (CAKI-1 renal) of over 100 µM and a TGI (CCRF-CEM leukemia) of over 100 µM. It also gave a TGI (COLO 205 colon) of over 100 µM, a TGI (DLD-1 colon) of over 100 µM and a TGI (DMS 114 small cell lung) of over 100 µM. It also gave a TGI (DMS 273 small cell lung) of over 100 µM, a TGI (EKVX NSCLC) of over 100 µM and a TGI (HCC-2998 colon) of over 100 µM. For the same compound, the TGI (HCT-116 colon) was over 100 µM, the TGI (HCT-15 colon) was over 100 µM and the TGI (HL-60(TB) leukemia) was over 100 µM. It also gave a TGI (HOP-62 NSCLC) of 54.3 µM, a TGI (HT29 colon) of over 100 µM and a TGI (IGROV1 ovarian) of over 100 µM. For the same compound, the TGI (K-562 leukemia) was over 100 µM, the TGI (KM12 colon) was over 100 µM and the TGI (KM20L2 colon) was over 100 µM. It also gave a TGI (LOX IMVI melanoma) of over 100 µM, a TGI (LXFL 529 NSCLC) of over 100 µM and a TGI (M14 melanoma) of over 100 µM. The TGI (M19-MEL melanoma) was over 100 µM, the TGI (MALME-3M melanoma) was over 100 µM and the TGI (MOLT-4 leukemia) was over 100 µM. It also gave a TGI (NCI-H226 lung) of over 60.8 µM, a TGI (NCI-H23 lung) of over 100 µM and a TGI (NCI-H460 lung) of over 100 µM. It also gave a TGI (NCI-H522 lung) of over 100 µM, a TGI (OVCAR-3 ovarian) of over 100 µM and a TGI (OVCAR-5 ovarian) of over 100 µM. The TGI (OVCAR-8 ovarian) was over 100 µM, the TGI (RPMI-8226 leukemia) was over 100 µM and the TGI (RXF 393 renal) was over 100 µM. It also gave a TGI (SF-268 CNS) of over 31.6 µM, a TGI (SF-295 CNS) of over 31.6 µM and a TGI (SF-539 CNS) of over 100 µM. It also gave a TGI (SK-MEL-2 melanoma) of over 100 µM, a TGI (SK-MEL-28 melanoma) of over 100 µM and a TGI (SK-MEL-5 melanoma) of over 100 µM. It also gave a TGI (SK-OV-3 ovarian) of over 100 µM, a TGI (SN12C renal) of over 100 µM and a TGI (SNB-19 CNS) of over 100 µM. It also gave a TGI (SNB-75 CNS) of 60.6 µM, a TGI (SNB-78 CNS) of over 100 µM and a TGI (SW-620 colon) of over 100 µM. The TGI (TK-10 renal) was over 100 µM, the TGI (U251 CNS) was over 100 µM and the TGI (UACC-257 melanoma) was over 100 µM. For the same compound, the TGI (UACC-62 melanoma) was over 100 µM, the TGI (UO-31 renal) was over 100 µM and the TGI (XF 498 CNS) was over 100 µM.
`COc1ccc(-c2csc(=[N+]3CCCCC3)s2)cc1` showed a TGI (786-0 renal) of over 100 µM, a TGI (A549 NSCLC) of over 100 µM and a TGI (ACHN renal) of over 100 µM. The TGI (CAKI-1 renal) was 8.42 µM, the TGI (CCRF-CEM leukemia) was 14.6 µM and the TGI (COLO 205 colon) was 2.85 µM. The TGI (DLD-1 colon) was over 100 µM, the TGI (DMS 273 small cell lung) was 13.3 µM and the TGI (EKVX NSCLC) was over 100 µM. For the same compound, the TGI (HCC-2998 colon) was over 100 µM, the TGI (HCT-116 colon) was 27.8 µM and the TGI (HCT-15 colon) was over 100 µM. For the same compound, the TGI (HL-60(TB) leukemia) was 10.2 µM, the TGI (HOP-18 NSCLC) was 83 µM and the TGI (HOP-62 NSCLC) was 8.06 µM. It also gave a TGI (HOP-92 NSCLC) of 7.73 µM, a TGI (HT29 colon) of 29.9 µM and a TGI (IGROV1 ovarian) of over 100 µM. For the same compound, the TGI (K-562 leukemia) was 24.2 µM, the TGI (KM12 colon) was 18.1 µM and the TGI (KM20L2 colon) was 24 µM. It also gave a TGI (LOX IMVI melanoma) of over 100 µM, a TGI (LXFL 529 NSCLC) of 26.9 µM and a TGI (M14 melanoma) of over 100 µM. The TGI (M19-MEL melanoma) was 11.4 µM, the TGI (MALME-3M melanoma) was 13.1 µM and the TGI (MOLT-4 leukemia) was 10.3 µM. It also gave a TGI (NCI-H226 lung) of 9.37 µM, a TGI (NCI-H23 lung) of 6.58 µM and a TGI (NCI-H460 lung) of 44.8 µM. The TGI (NCI-H522 lung) was 5.17 µM, the TGI (OVCAR-3 ovarian) was 31.6 µM and the TGI (OVCAR-4 ovarian) was 36.1 µM. It also gave a TGI (OVCAR-5 ovarian) of 76.8 µM, a TGI (OVCAR-8 ovarian) of over 100 µM and a TGI (RPMI-8226 leukemia) of 8.36 µM. For the same compound, the TGI (RXF 393 renal) was 56.5 µM, the TGI (SF-268 CNS) was 23.5 µM and the TGI (SF-295 CNS) was 8.73 µM. It also gave a TGI (SF-539 CNS) of 95.3 µM, a TGI (SK-MEL-2 melanoma) of 16.6 µM and a TGI (SK-MEL-28 melanoma) of 29.7 µM. It also gave a TGI (SK-MEL-5 melanoma) of 4.76 µM, a TGI (SK-OV-3 ovarian) of 17.6 µM and a TGI (SN12C renal) of over 100 µM. The TGI (SNB-19 CNS) was over 100 µM, the TGI (SNB-75 CNS) was 8.22 µM and the TGI (SNB-78 CNS) was over 100 µM. The TGI (SR leukemia) was 11.2 µM, the TGI (SW-620 colon) was over 100 µM and the TGI (TK-10 renal) was over 100 µM. The TGI (U251 CNS) was over 100 µM, the TGI (UACC-257 melanoma) was 26.6 µM and the TGI (UACC-62 melanoma) was 24.1 µM. The TGI (UO-31 renal) was over 100 µM and the TGI (XF 498 CNS) was 17.8 µM.
With `Cc1c(C)n(COCCO)c2ncnc(N)c12` the TGI (786-0 renal) was over 100 µM, the TGI (A498 renal) was over 100 µM and the TGI (A549 NSCLC) was over 100 µM. It also gave a TGI (ACHN renal) of over 100 µM, a TGI (CAKI-1 renal) of over 100 µM and a TGI (CCRF-CEM leukemia) of over 100 µM. The TGI (COLO 205 colon) was over 100 µM, the TGI (DLD-1 colon) was over 100 µM and the TGI (DMS 273 small cell lung) was over 100 µM. It also gave a TGI (EKVX NSCLC) of over 100 µM, a TGI (HCC-2998 colon) of over 100 µM and a TGI (HCT-15 colon) of over 100 µM. For the same compound, the TGI (HL-60(TB) leukemia) was over 100 µM, the TGI (HOP-18 NSCLC) was over 100 µM and the TGI (HOP-92 NSCLC) was over 100 µM. The TGI (HT29 colon) was over 100 µM, the TGI (IGROV1 ovarian) was over 100 µM and the TGI (K-562 leukemia) was over 100 µM. For the same compound, the TGI (KM12 colon) was over 100 µM, the TGI (KM20L2 colon) was over 100 µM and the TGI (LXFL 529 NSCLC) was over 100 µM. The TGI (M14 melanoma) was over 100 µM, the TGI (M19-MEL melanoma) was over 100 µM and the TGI (MOLT-4 leukemia) was over 100 µM. For the same compound, the TGI (NCI-H226 lung) was over 100 µM, the TGI (NCI-H23 lung) was over 100 µM and the TGI (NCI-H460 lung) was over 100 µM. The TGI (NCI-H522 lung) was over 100 µM, the TGI (OVCAR-3 ovarian) was over 100 µM and the TGI (OVCAR-4 ovarian) was over 100 µM. It also gave a TGI (OVCAR-8 ovarian) of over 100 µM, a TGI (RPMI-8226 leukemia) of over 100 µM and a TGI (RXF 393 renal) of over 100 µM. For the same compound, the TGI (SF-268 CNS) was over 100 µM, the TGI (SF-295 CNS) was over 100 µM and the TGI (SF-539 CNS) was over 100 µM. It also gave a TGI (SK-MEL-2 melanoma) of over 100 µM, a TGI (SK-MEL-28 melanoma) of over 100 µM and a TGI (SK-MEL-5 melanoma) of over 100 µM. For the same compound, the TGI (SK-OV-3 ovarian) was over 100 µM, the TGI (SN12C renal) was over 100 µM and the TGI (SNB-19 CNS) was over 100 µM. The TGI (SNB-75 CNS) was over 100 µM, the TGI (SR leukemia) was over 100 µM and the TGI (SW-620 colon) was over 100 µM. It also gave a TGI (TK-10 renal) of over 100 µM, a TGI (U251 CNS) of over 100 µM and a TGI (UO-31 renal) of over 100 µM. The TGI (XF 498 CNS) was over 100 µM.
